Data set [1] is described as follows: Loading of terpenes (L-carvone) into SAF Mannan in minimal water (free terpene, flow). Also noted: key to Free Terpene: +: “free terpene” refers to the visible presence of terpene in the centrifuged reaction mixture; −: The absence of free terpene indicates complete absorption of the terpene by the particles; key to Flow: Sl = slight. Type of data set: physicochemical. As to conditions: emulsion 4.64 g; for Flow: flow in inverted tubes over 15 minutes. The method, then:
The following protocol was carried out to evaluate the possibility that terpene loading and encapsulation into YP could be carried out at a very high Yeast Particles (YP) solids level to allow for direct extrusion of the loaded formulation into a fluidised bed drier. The minimal amount of water to completely hydrate the SAF Mannan™ particles was determined to be 3.53 g water per g solids. This defines the hydrodynamic volume (HV) or water absorptive capacity of the particles. At this level of water the hydrated particles have a consistency of a stiff dough which is thixotropic, i.e. shear thinning like mayonnaise. Addition of water up to 40% above the HV results in a thick flowable paste. The standard reaction that has been used in the above examples was carried out at 3×HV water.
. Controls were the standard loading system which uses 3×HV water, particles only and terpene only reactions. Following overnight incubation samples of the mixtures were evaluated microscopically for free terpene and evidence of terpene uptake into the particles and for material flow characteristics by assessing flow in inverted tubes over 15 minutes. In addition, the presence of free oil was assessed by hydrating the reaction mixture with 5×HV, vortexing to obtain a complete dispersion of particles and centrifugation to sediment the particle encapsulated terpene. FIGS. 7 to 12 show the loading results of the following tubes: • FIG. 7—Tube 3 • FIG. 8—Tube 5 • FIG. 9—Tube 6 • FIG. 10—Tube 8 • FIG. 11—Tube 10 • FIG. 12—Tube 11

Another data set concerns root-knot nematodes. The data set can be described thus: Nematicidal activity of citral on root-knot nematodes (selectivity experiment). As to conditions: 250 ppm.
A further data set concerns Citrus nematodes. Kind of data set: Nematicidal effects of citral in soil, Citrus nematodes. Type of data set: in vivo, citrus nematode. Here is the method: Methodology: Nematodes used for the analysis originated from commercial agricultural crop soils. Species of nematode included root-knot and citrus. Prior to commencement of each study the nematodes were counted and evaluated for viability. In each experiment soil samples were infected with only one species of nematode. Three measured quantities of soil (250 g) were placed into large PVC plastic containers.
Soil moisture was assessed by weighing a soil sample and then drying the sample in a drying oven. Soil moisture content was confirmed using a “Hydroscout” instrument. In all cases the moisture content measured by both methods was within the resolution of the instruments. By determining the water content of the soil it was possible to calculate the volume of terpene solution which would be diluted when mixed with the soil.
These dilutions were by volume not the more commonly used mass ratios. The reason for using volume dilutions was simply one of convenience enabling the use of a micropipette or cylinder to measure the terpene. The mass ratio of the ‘in soil’ and ‘in water’ solution could be simply calculated by multiplying the ppm of terpene by it's density (0.92 g/ml).
The terpene solution was added to each test tube containing a weighed sample of nematode infected soil. The terpene solution and soil were mixed by inverting the test tube several times. The test tubes containing the soil and terpene solution were left to stand in racks in the laboratory for 48 hours-72 hours depending on the survival of the untreated nematodes. In each experiment a control group was treated with distilled water. The % mortality (kill) rates in the treatment groups was compared with the control population.
The nematodes were extracted by “Sieving & mist extraction” (Ayoub, S. M. 1977) prior to being counted.
Criteria for Evaluation: Nematode counts were performed to determine the proportion of nematodes which survived and were killed in each treatment group.
The results are shown below on Table 17 to 19.

In a further data set the test system is Root Knot nematodes. The data set can be described thus: Nematicidal effects of citral in soil, Root Knot nematodes. The format is in vivo, root-knot nematode. The method, then:
Methodology: Nematodes used for the analysis originated from commercial agricultural crop soils. Species of nematode included root-knot and citrus. Prior to commencement of each study the nematodes were counted and evaluated for viability. In each experiment soil samples were infected with only one species of nematode. Three measured quantities of soil (250 g) were placed into large PVC plastic containers. Soil moisture was assessed by weighing a soil sample and then drying the sample in a drying oven. Soil moisture content was confirmed using a “Hydroscout” instrument. In all cases the moisture content measured by both methods was within the resolution of the instruments. By determining the water content of the soil it was possible to calculate the volume of terpene solution which would be diluted when mixed with the soil. […] These dilutions were by volume not the more commonly used mass ratios. The reason for using volume dilutions was simply one of convenience enabling the use of a micropipette or cylinder to measure the terpene. The mass ratio of the ‘in soil’ and ‘in water’ solution could be simply calculated by multiplying the ppm of terpene by it's density (0.92 g/ml). The terpene solution was added to each test tube containing a weighed sample of nematode infected soil. The terpene solution and soil were mixed by inverting the test tube several times. […] In each experiment a control group was treated with distilled water. The % mortality (kill) rates in the treatment groups was compared with the control population. The nematodes were extracted by “Sieving & mist extraction” (Ayoub, S. M. 1977) prior to being counted. Criteria for Evaluation: Nematode counts were performed to determine the proportion of nematodes which survived and were killed in each treatment group. […] The results are shown below on Table 17 to 19. The experiment was performed once again, this time with the following changes: • Dose range of 125 ppm-750 ppm was used. • Glass tubes containing 150 g of soil were used as opposed to PVC tubes in previous experiments.

Where “and” joins values, the source holds several entries; their conditions need not be identical. Identical values can stand only once.

Excerpt for root-knot nematodes: Living saprophagus nematodes move rapidly in water. The control used was the nematodes in water alone.
The figures given are for the percentage of nematodes found to be dead upon microscopic examination and are the average of 2 replicates.

Regarding L-carvone, the “Free Terpene” value in data set [1] (Tube 1: terpene only control, no SAF, water 4.5 g) was “+”; in data set [1] (Tube 3: SAF 1 g, water 4.5 g (standard loading, 3×HV)), “−”; in data set [1] (Tube 4: SAF 1 g, water —), “−”; in data set [1] (Tube 5: SAF 1 g, water 0.17 g), “−”; in data set [1] (Tube 6: SAF 1 g, water 0.35 g) it was “−”; in data set [1] (Tube 7: SAF 1 g, water 0.52 g) it was “−”. The “Free Terpene” value in data set [1] (Tube 8: SAF 1 g, water 0.7 g) is reported as “−”; in data set [1] (Tube 9: SAF 1 g, water 0.87 g), “−”; in data set [1] (Tube 10: SAF 1 g, water 1.05 g) it was “−”; in data set [1] (Tube 11: SAF 1 g, water 1.39 g), “−”. The Flow result in data set [1] (Tube 7: SAF 1 g, water 0.52 g) is listed as “Sl”; in data set [1] (Tube 8: SAF 1 g, water 0.7 g), “Mod”; in data set [1] (Tube 9: SAF 1 g, water 0.87 g) it was “High”; in data set [1] (Tube 10: SAF 1 g, water 1.05 g) it was “High”; in data set [1] (Tube 11: SAF 1 g, water 1.39 g) it was “High”.
As for `CC(C)=CCCC(C)=CC=O` [Citral, citral], the “% dead” value in the data set with root-knot nematodes (24 h) was 87% and 88%; in the data set on root-knot nematodes (48 h) it was 100%. Besides, the Mean % killed is −2.84% in the data set with Citrus nematodes (first experiment (Table 16), 62.5 ppm, 8 replicates); 46.29% in the data set with Citrus nematodes (first experiment (Table 16), 125 ppm, 8 replicates); 91.66% with Citrus nematodes (first experiment (Table 16), 250 ppm, 8 replicates); 95.53% in the data set with Citrus nematodes (first experiment (Table 16), 500 ppm, 8 replicates); 99.9% with Citrus nematodes (repeated protocol (Table 19), 500 ppm, N 10); 18.87% in the data set with Root Knot nematodes (first experiment (Table 15), soil, 62.5 ppm, 8 replicates). Moreover, the Mean % killed in the data set on Root Knot nematodes (first experiment (Table 15), soil, 125 ppm, 8 replicates) came out at 4.34%; with Root Knot nematodes (first experiment (Table 15), soil, 250 ppm, 8 replicates), 23.66%; in the data set with Root Knot nematodes (first experiment (Table 15), soil, 500 ppm, 8 replicates), 67.10%; in the data set on Root Knot nematodes (repeated protocol (Table 18), soil, 500 ppm, N 10), 99.6%; in the data set with Root Knot nematodes (third experiment (Table 20), glass tubes, 150 g of soil, 125 ppm, N 8), 74.51%; with Root Knot nematodes (third experiment (Table 20), glass tubes, 150 g of soil, 250 ppm, N 8) it was 97.37%. For the same compound, the Mean % killed in the data set with Root Knot nematodes (third experiment (Table 20), glass tubes, 150 g of soil, 500 ppm, N 8) worked out at 100%; in the data set on Root Knot nematodes (third experiment (Table 20), glass tubes, 150 g of soil, 750 ppm, N 8) it was 99.42%.

Source of the values: patent US10729130B2, “Nematicidal compositions and methods of using them” (Eden Research plc, priority 2004, dated 2020).
